From publication PMC7288168, “Synthesis and Cytotoxic Activity of Chiral Sulfonamides Based on the 2-Azabicycloalkane Skeleton” (Molecules, 2020)
“Also recorded” adds a separate entry of the source.

What was measured:
[1] = Solubility in DMSO for in vitro tests; assay type: physicochemical; conditions: DMSO used for the in vitro tests
Description: All tested compounds were dissolved in dimethyl sulfoxide (DMSO). […] To assess the anticancer activity of compounds, we tested human hepatocellular carcinoma (HCC), medulloblastoma (MB), and glioblastoma (GBM) cell lines. Further, to compare the effects of selected compounds on nonmalignant primary cells, we used primary human umbilical vein endothelial cells (HUVEC).
We planned to use compounds 8 and 9 as references in the current study. […] In our further studies, we plan to compare activities of all compounds using ethanol as the solvent.

human colon cancer HT-29 = tested on: human colon cancer HT-29; set-up: method as in doi:10.1016/j.tetasy.2016.06.009; conditions: colon cancer line; cited from earlier work
HUH7 cells = assay: Neutral red cell viability assay, HUH7; assay type: cell-based, human; conditions: Homo sapiens, Huh-7; 24 h treatment, neutral red; read-out: LD50 HUH7 (HCC)
Description: (§1) The human hepatocellular carcinoma (HCC) cell line HUH7 was purchased from ATCC (LGC standards GmbH, Wesel, Germany). The Austrian human HCC cell line AKH12 has been well characterized and was kindly provided by Prof. Bettina Grasl-Kraupp. HUH7 cells were cultured in Dulbecco’s modified Eagle’s medium (Thermo Fisher Scientific, Waltham, MA, USA) containing 10% heat-inactivated fetal bovine serum (FBS) (Sigma-Aldrich, St. Louis, MO, USA), 1% penicillin-streptomycin (10,000 U/mL) (Thermo Fisher Scientific, Waltham, MA, USA), and 1% minimum essential medium nonessential amino acids (100x) (Thermo Fisher Scientific, Waltham, MA, USA). AKH12 cells were cultured in RPMI1640 medium (Sigma-Aldrich, St. Louis, MO, USA) containing 10% heat-inactivated FBS. DAOY and D283Med (short D283) medulloblastoma (MB) cells were purchased from ATCC (LGC standards GmbH, Wesel, Germany). D425Med (short D425) and UW228-2 were provided by Thomas Ströbel from the Institute of Neurology Medical University of Vienna. The cells were cultured in Dulbecco’s modified Eagle’s medium (Sigma-Aldrich, St. Louis, MO, USA) containing 10% FBS (Sigma-Aldrich, St. Louis, MO, USA), 2% L-Glutamine (Sigma-Aldrich, St. Louis, MO, USA), and 0.2% Normocin (Sigma-Aldrich, St. Louis, MO, USA). U-251 MG (short U251) glioblastoma (GBM) cell line was purchased from Sigma-Aldrich and cultured in Dulbecco’s modified Eagle’s medium (Sigma-Aldrich, St. Louis, MO, USA) containing 10% FBS (Sigma-Aldrich, St. Louis, MO, USA), 2% L-Glutamine (Sigma-Aldrich, St. Louis, MO, USA), and 0.2% Normocin (Sigma-Aldrich, St. Louis, Missouri, USA). Human umbilical vein endothelial cells (HUVECs) were provided by Brigitte Winter from the Department of Surgery Medical University of Vienna and were grown in endothelial cell growth medium-2 BulletKitTM (Lonza, Basel, Switzerland) under standard tissue culture conditions. All cells were incubated at 37 °C in a 5% CO2 atmosphere and regularly checked for mycoplasma contamination.
(§2) Cell viability was determined using a neutral red assay, as previously described. The cells were placed in 24-well plates and grown to reach 70–80% confluency prior to treatment. After treatment for 24 h, cells were incubated with neutral red at a concentration of 50 µg/mL in serum-free medium for 2 h at 37 °C. Cells were then washed 2x and incubated with 1% acetic acid in 70% ethanol. The dye concentration was measured photometrically at 562 nm. The percentage of survival was calculated considering DMSO-treated (indicated as 0 µM concentration) cells as 100% control.
(§3) LD50 was defined as the amount of a toxic agent required to eliminate 50% of the cell population. The LD50 was calculated in each experiment from the respective dose–response curve. All experiments were performed in triplicate wells.

AKH12 cells = assay: Neutral red cell viability assay, AKH12; assay type: cell-based, human; conditions: for reduction of cell viability, AKH12: 50 µM, 24 h, first screening; for IC50: Homo sapiens, 24 h treatment, neutral red, read-out: LD50 AKH12 (HCC)
Description: as §1, §2, §3

DAOY cells = assay: Neutral red cell viability assay, DAOY; assay type: cell-based, human; conditions: for reduction of cell viability, DAOY: 50 µM, 24 h, first screening; for IC50: Homo sapiens, Daoy, 24 h treatment, neutral red, read-out: LD50 DAOY (MB)
Description: as §1, §2, §3

UW228-2 cells = assay: Neutral red cell viability assay, UW228-2; assay type: cell-based, human; conditions: for reduction of cell viability, UW228-2: 50 µM, 24 h, first screening; for IC50: Homo sapiens, UW228-2, 24 h treatment, neutral red, read-out: LD50 UW228-2 (MB)
Description: as §1, §2, §3

D283 cells = assay: Neutral red cell viability assay, D283; assay type: cell-based, human; conditions: for reduction of cell viability, D283: 50 µM, 24 h, first screening; for IC50: Homo sapiens, D283, 24 h treatment, read-out: LD50 D283 (MB)
Description: as §1, §2, §3

U251 cells = assay: Neutral red cell viability assay, U251; assay type: cell-based, human; conditions: for decrease of cell viability, U251: 50 µM, 24 h, first screening; for IC50: Homo sapiens, U-251, 24 h treatment, neutral red, read-out: LD50 U251 (GBM)
Description: as §1, §2, §3

HUVEC cells [2] = assay: Neutral red cell viability assay, HUVEC (Table 1); assay type: cell-based; conditions: Table 1, nonmalignant primary cells, 24 h
Description: as §1, §2, §3

D425 cells = assay: Cell viability assay (suspension cell line), MTT/CellTiter Blue, D425; assay type: cell-based, human; conditions: for reduction of cell viability, D425: 50 µM, 24 h, first screening; for IC50: Homo sapiens, 24 h treatment, suspension cell assay, read-out: LD50 D425 (MB); for HUVEC/D425 LD50 Fold Change: ratio of LD50 HUVEC to LD50 D425
Description: as §1, §3
(§4) One day before treatment, 2 × 10^4 of D425Med or HUVEC cells were seeded into 24-well plates and incubated at 37 °C in a humidified atmosphere containing 5% CO2.The cells were treated with different compounds for 24 h. A […] assay using the CellTiter Blue reagent (Promega, Fitchburg, Wisconsin, USA) was performed according to the manufacturer’s protocol. Experiments were performed in triplicate and repeated three times. The percentage of survival was calculated as the ratio using DMSO-treated (indicated as 0 µM concentration) cells as 100% control.

HUVEC cells [3] = assay: Cell viability assay MTT/CellTiter Blue, HUVEC (Table 2); assay type: cell-based; conditions: Table 2, nonmalignant primary cells, 24 h, assay as for D425
Description: as §1, §3, §4

Compound | solubility in DMSO [1] | IC50 (human colon cancer HT-29) | IC50 (HUH7 cells) | reduction of cell viability, AKH12 (AKH12 cells) | IC50 (AKH12 cells) | reduction of cell viability, DAOY (DAOY cells) | IC50 (DAOY cells) | reduction of cell viability, UW228-2 (UW228-2 cells) | IC50 (UW228-2 cells) | reduction of cell viability, D283 (D283 cells) | IC50 (D283 cells) | decrease of cell viability, U251 (U251 cells) | IC50 (U251 cells) | LD50 HUVEC (HUVEC cells [2]) | reduction of cell viability, D425 (D425 cells) | IC50 (D425 cells) | HUVEC/D425 LD50 Fold Change (D425 cells) | LD50 HUVEC (HUVEC cells [3]) | D425 cell viability as compared to HUVEC cells (D425 cells; dose-response 24 h, Student's t-test, p ≤0.05 / p ≤0.01) | melting point
CC(c1ccccc1)N1C2CCC(C2)C1CNCCNCC1C2CCC(C2)N1C(C)c1ccccc1 (centres unmarked) [Compound 8] | not sufficient; also recorded: insufficiently soluble | 7.2 ± 0.8 µM |  |  |  |  |  |  |  |  |  |  |  |  |  |  |  |  |  | 
CC(c1ccccc1)N1C2CCC(C2)C1CNCC1C2CCC(C2)N1C(C)c1ccccc1 (centres unmarked) [Compound 9] | not sufficient; also recorded: insufficiently soluble |  |  |  |  |  |  |  |  |  |  |  |  |  |  |  |  |  |  | 
CC(c1ccccc1)N1CC(NS(=O)(=O)c2ccc(-c3ccccc3)cc2)C2CCC1C2 [Compound 11a, 4-Phenyl-N-((2-((S)-1-phenylethyl)-(1S,4S,5R)-2-azabicyclo[3.2.1]octan-4-yl)benzenesulfonamide] |  |  | 22.5 ± 1.21 µM | reduced cell viability below LD50 | 28.8 ± 1.53 µM | reduced cell viability | 18.7 ± 1.88 µM | reduced cell viability | 16 ± 1.03 µM | reduced cell viability | 20 ± 2.02 µM | more than 50% | 18.8 ± 2.11 µM | 13.35 ± 0.25 µM | reduced cell viability | 21.4 ± 0.89 µM | 1.01 | 21.71 ± 1.99 µM |  | 
COc1ccc(-c2ccc(S(=O)(=O)NC3CN(C(C)c4ccccc4)C4CCC3C4)cc2)cc1 [Compound 11e, 4-(4-Methoxyphenyl)-N-((2-((S)-1-phenylethyl)-(1S,4S,5R)-2-azabicyclo[3.2.1]octan-4-yl)benzenesulfonamide] |  |  | 30.2 ± 2.21 µM | reduced cell viability below LD50 | 28 ± 1.39 µM | reduced cell viability | 24 ± 1.49 µM | reduced cell viability | 23.5 ± 1.56 µM | reduced cell viability | 25.9 ± 1.9 µM | more than 50% | 23.7 ± 1.69 µM | 17.58 ± 2.94 µM | reduced cell viability | 17.8 ± 1.04 µM | 2.04 | 36.38 ± 4.37 µM | significantly reduced D425 cell viability as compared to HUVEC cells | 
CC(c1ccccc1)N1CC(NS(=O)(=O)c2cc(C(F)(F)F)cc(C(F)(F)F)c2)C2CCC1C2 [Compound 11g, 3,5-Bis(trifluoromethyl)-N-((2-((S)-1-phenylethyl)-(1S,4S,5R)-2-azabicyclo[3.2.1]octan-4-yl)benzenesulfonamide] |  |  | 20 ± 1.1 µM | reduced cell viability below LD50 | 28 ± 1.72 µM | reduced cell viability | 20.4 ± 1.33 µM | reduced cell viability | 20.1 ± 1.34 µM | reduced cell viability | 17.2 ± 0.89 µM | more than 50% | 24.8 ± 0.92 µM | 18.68 ± 1.97 µM | reduced cell viability | 11.2 ± 1.73 µM | 1.42 | 16 ± 2.29 µM |  | 
Cc1ccc(-c2ccc(S(=O)(=O)N(CCN(CC3C4CCC(C4)N3C(C)c3ccccc3)S(=O)(=O)c3ccc(-c4ccc(C)cc4)cc3)CC3C4CCC(C4)N3C(C)c3ccccc3)cc2)cc1 [Compound 12b, Bis-4’-methyl-N,N-{[(1S,3R,4R)-2-((S)-1-phenylethyl)-2-azabicyclo[2.2.1]heptan-3-yl]methyl}-[1,1'-biphenyl]ethyl-4-sulfonamide] | not sufficient |  |  |  |  |  |  |  |  |  |  |  |  |  |  |  |  |  |  | 120 to 125 °C
CC(c1ccccc1)N1C2CCC(C2)C1CN(CCN(CC1C2CCC(C2)N1C(C)c1ccccc1)S(=O)(=O)c1ccc(-c2ccc(Cl)cc2)cc1)S(=O)(=O)c1ccc(-c2ccc(Cl)cc2)cc1 [Compound 12d, Bis-4’-chloro-N,N-{[(1S,3R,4R)-2-((S)-1-phenylethyl)-2-azabicyclo[2.2.1]heptan-3-yl]methyl}-[1,1'-biphenyl]ethyl-4-sulfonamide] | not sufficient |  |  |  |  |  |  |  |  |  |  |  |  |  |  |  |  |  |  | 252 to 255 °C
CC(=O)Nc1ccc(S(=O)(=O)N(CCN(CC2C3CCC(C3)N2C(C)c2ccccc2)S(=O)(=O)c2ccc(NC(C)=O)cc2)CC2C3CCC(C3)N2C(C)c2ccccc2)cc1 [Compound 12i, Bis-N,N-(4-(N-(((1S,3R,4R)-2-((S)-1-phenylethyl)-2-azabicyclo[2.2.1]heptan-3-yl)methyl)sulfamoyl)ethyl)phenyl)acetamide] |  |  | 7.75 ± 0.84 µM | reduced cell viability below LD50 | 5.75 ± 0.47 µM | reduced cell viability | 12.9 ± 1.59 µM | reduced cell viability | 28.4 ± 2.11 µM | reduced cell viability | 21.8 ± 1.9 µM | more than 50% | 15.3 ± 1.59 µM | 3.16 ± 0.15 µM | reduced cell viability | 15.6 ± 0.93 µM | 0.57 | 8.91 ± 2.11 µM |  | 
CC(c1ccccc1)N1C2CCC(C2)C1CN(CC1C2CCC(C2)N1C(C)c1ccccc1)S(=O)(=O)c1ccc(-c2ccccc2)cc1 [Compound 13a, N-Bis-(((1S,3R,4R)-2-((S)-1-phenylethyl)-2-azabicyclo[2.2.1]heptan-3-yl)methyl)-[1,1'-biphenyl]-4-sulfonamide] |  |  | 13.9 ± 0.49 µM | reduced cell viability below LD50 | 8 ± 0.28 µM | reduced cell viability | 19.2 ± 1.37 µM | reduced cell viability | 25.9 ± 1.98 µM | reduced cell viability | 38.4 ± 1.11 µM | more than 50% | 27.6 ± 1.04 µM | 12.13 ± 0.26 µM | reduced cell viability | 30.5 ± 1.86 µM | 0.52 | 16 ± 0.79 µM |  | 
N.N.[Cl][Pt][Cl] [cisplatin] |  | 9.7 ± 2 µM |  |  |  |  |  |  |  |  |  |  |  |  |  |  |  |  |  | 
